Data reported in patent publication US9072293B2, “Cyclopropenes and method for applying cyclopropenes to agricultural products or crops” (Erum Biotechnologies Inc., priority 2010, dated 2015).
Values joined by “and” are separate entries in the source; they are usually repeats but may differ in a detail not shown here. Equal entries are not always repeated.

How the values were obtained:
[1] = Relative chemical stability of cyclopropenes measured by 1H-NMR; format: physicochemical; conditions: for Stability (relative chemical stability, based on cyclopropenes having a chain length of 1): 1H-NMR, CDCl3, stored at −20° C. or room temperature, relative to chain length 1
Summary of the method: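 Compounds in CDCl3 NMR tubes stored at −20° C. or room temperature and followed by 1H-NMR. Integrals of characteristic 1-alkylcyclopropene peaks (4–6.5 ppm, 1H; 0.8–0.9 ppm, 2H) compared against 1,1,3,3-tetramethylurea internal standard (2.80 ppm); stability expressed relative to chain-length-1 analogue.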

[2] = system: tomato; assay: Experimental Example 1: Efficacy test on tomato using emulsion (reddening grade); format: in vivo; conditions: individual tomatoes n=4
Description: In situ, a 1.0 mM 1-octylcyclopropene formulation was prepared using (trans)-1-octyl-1-(methanesulfonyloxy)-2-(trimethylsilyl)cyclopropane of Preparation Example 10 in the same manner as in Example 7. This solution was diluted to 1 to 100 times prior to use, as necessary. Experimental Example 1: Efficacy test on tomato using emulsion 1.0 mM formulations of five agents such as 1-(2-phenylethyl)cyclopropene, 1-(3-phenylpropyl)cyclopropene, 1-(4-phenylbutyl)cyclopropene, 1-(5-phenylpentyl)cyclopropene and 1-hexylcyclopropene were prepared in the same manner as in Example 1, and 1.0 mM and 100 μM solutions were prepared therefrom. Then, the effects of the solutions were compared with non-treated groups and control groups in which a surfactant or a stabilizing agent (sodium dodecylbenzenesulfonate or tristyrenylphenykethoxy)12ethanol) is dissolved.
Tomatoes whose top end began to turn pink were screened, harvested and divided into 12 groups (n=4) in total, i.e., non-treated groups, control groups (surfactant) and agent groups with different concentrations such as 100 μM and 1.0 mM. Tomatoes were treated with the prepared agent formulation using a household sprayer such that the surface thereof was saturated. The tomatoes were stood at room temperature (25-30° C.) for 3 days and a reddening level thereof was evaluated based on grades of 0 to 5.
(§1) At this time, the tops of tomatoes most early turned red, while the bottoms thereof most lately turned red. For this reason, in order to accurately evaluate the difference in reddening, the coloring evaluated was based on the area of red color, rather than the color of tomatoes. […] Accordingly, the grade level is proportional to the rate at which the tomatoes ripened.

[3] = system: tomato; assay: Experimental Example 2: Efficacy test on tomato using oil based formulation (reddening grade); format: in vivo; design: key: an area in which the surface of tomato was colored in pink was 10% or less; an area in which the surface of tomato was completely colored in red was 10 to 40%; 2: an area in which the surface of tomato was completely colored in red was 40 to 70%; 3: an area in which the surface of tomato was completely colored in red was 70% or more and the bottom area remained green; 4: an area in which the surface of tomato was most colored in red and only a part of (0 to 10%) the bottom area remained green; 5: the surface of tomato did not entirely color in green; conditions: 1.0 mM oil-based formulation, individual tomatoes n=4
Description: as §1
As illustrated in Example 1, in situ, in accordance with the methods of Preparation Examples 15, 16, 17, 18 and 22, five agents (1.0 mmol) such as 1-(2-phenylethyl)cyclopropene, 1-(3-phenylpropyl)cyclopropene, 1-(4-phenylbutyl)cyclopropene, 1-(5-phenylpentyl)cyclopropene and 1-hexylcyclopropene were prepared, 5.0 ml of xylene and 5.0 ml of water were added to the reaction solution, vigorously stirred for 5 minutes and stood. When the mixture was separated into an organic layer (upper layer) and an aqueous layer (lower layer), only the organic layer was collected and the aqueous layer was discarded. […] of hexane was added to the organic layer and homogeneously mixed to prepare a 1.0 mM oil-based formulation.
The tomatoes were screened in the same manner as in Experimental Example 1 and divided into 7 groups (n=4) including a non-treated group, a control group (solvent-treated group) and 5 agent groups. Tomatoes were treated with the previously prepared agent using a household sprayer such that the surface thereof was saturated. The tomatoes were stood at room temperature (25-30° C.) for 3 days and a reddening level thereof was evaluated based on grades of 0 to 5.

[4] = 100 μM, Day 0, room temperature (25-30° C.)
[5] = 100 μM, Day 1, room temperature (25-30° C.)
[6] = 100 μM, Day 2, room temperature (25-30° C.)
[7] = 100 μM, Day 3, room temperature (25-30° C.)
[8] = 1.0 mM, Day 0, room temperature (25-30° C.)
[9] = 1.0 mM, Day 1, room temperature (25-30° C.)
[10] = 1.0 mM, Day 2, room temperature (25-30° C.)
[11] = 1.0 mM, Day 3, room temperature (25-30° C.)
[12] = Day 0, room temperature (25-30° C.)
[13] = Day 1, room temperature (25-30° C.)
[14] = Day 2, room temperature (25-30° C.)
[15] = Day 3, room temperature (25-30° C.)

| Compound | chemical stability (in words) [1] | Stability (relative chemical stability, based on cyclopropenes having a chain length of 1) [1] | reddening level (grade 0 to 5) [2, 4] | reddening level (grade 0 to 5) [2, 5] | reddening level (grade 0 to 5) [2, 6] | reddening level (grade 0 to 5) [2, 7] | reddening level (grade 0 to 5) [2, 8] | reddening level (grade 0 to 5) [2, 9] | reddening level (grade 0 to 5) [2, 10] | reddening level (grade 0 to 5) [2, 11] | Tomato results: reddening level (grade 0 to 5) [3, 12] | Tomato results: reddening level (grade 0 to 5) [3, 13] | Tomato results: reddening level (grade 0 to 5) [3, 14] | Tomato results: reddening level (grade 0 to 5) [3, 15] |
| --- | --- | --- | --- | --- | --- | --- | --- | --- | --- | --- | --- | --- | --- | --- |
| C1=C(CCc2ccccc2)C1 [(2-Phenylethyl), 1-(2-phenylethyl)cyclopropene] | considerably stable | >10 | 0 (an area in which the surface of tomato was colored in pink was 10% or less) (2×) and 1 (an area in which the surface of tomato was completely colored in red was 10 to 40%) and 2 (an area in which the surface of tomato was completely colored in red was 40 to 70%) | 1 (an area in which the surface of tomato was completely colored in red was 10 to 40%) (2×) and 3 (an area in which the surface of tomato was completely colored in red was 70% or more and the bottom area remained green) (2×) | 2 (an area in which the surface of tomato was completely colored in red was 40 to 70%) and 3 (an area in which the surface of tomato was completely colored in red was 70% or more and the bottom area remained green) and 4 (2×) | 3 (an area in which the surface of tomato was completely colored in red was 70% or more and the bottom area remained green) and 4 and 5 (2×) | 0 (an area in which the surface of tomato was colored in pink was 10% or less) (2×) and 1 (an area in which the surface of tomato was completely colored in red was 10 to 40%) and 2 (an area in which the surface of tomato was completely colored in red was 40 to 70%) | 1 (an area in which the surface of tomato was completely colored in red was 10 to 40%) (2×) and 2 (an area in which the surface of tomato was completely colored in red was 40 to 70%) and 3 (an area in which the surface of tomato was completely colored in red was 70% or more and the bottom area remained green) | 2 (an area in which the surface of tomato was completely colored in red was 40 to 70%) (2×) and 3 (an area in which the surface of tomato was completely colored in red was 70% or more and the bottom area remained green) and 4 | 3 (an area in which the surface of tomato was completely colored in red was 70% or more and the bottom area remained green) (2×) and 4 and 5 | 0 (an area in which the surface of tomato was colored in pink was 10% or less) (2×) and 1 (an area in which the surface of tomato was completely colored in red was 10 to 40%) and 2 (an area in which the surface of tomato was completely colored in red was 40 to 70%) | 1 (an area in which the surface of tomato was completely colored in red was 10 to 40%) (2×) and 2 (an area in which the surface of tomato was completely colored in red was 40 to 70%) and 3 (an area in which the surface of tomato was completely colored in red was 70% or more and the bottom area remained green) | 2 (an area in which the surface of tomato was completely colored in red was 40 to 70%) (2×) and 4 (2×) | 4 (2×) and 5 (2×) |
| C1=C(CCCc2ccccc2)C1 [(3-Phenylpropyl), 1-(3-phenylpropyl)cyclopropene] | much more stable | >>10 | 0 (an area in which the surface of tomato was colored in pink was 10% or less) (2×) and 1 (an area in which the surface of tomato was completely colored in red was 10 to 40%) and 2 (an area in which the surface of tomato was completely colored in red was 40 to 70%) | 1 (an area in which the surface of tomato was completely colored in red was 10 to 40%) (3×) and 2 (an area in which the surface of tomato was completely colored in red was 40 to 70%) | 1 (an area in which the surface of tomato was completely colored in red was 10 to 40%) (2×) and 2 (an area in which the surface of tomato was completely colored in red was 40 to 70%) and 3 (an area in which the surface of tomato was completely colored in red was 70% or more and the bottom area remained green) | 2 (an area in which the surface of tomato was completely colored in red was 40 to 70%) (2×) and 3 (an area in which the surface of tomato was completely colored in red was 70% or more and the bottom area remained green) and 4 | 0 (an area in which the surface of tomato was colored in pink was 10% or less) (2×) and 1 (an area in which the surface of tomato was completely colored in red was 10 to 40%) and 2 (an area in which the surface of tomato was completely colored in red was 40 to 70%) | 0 (an area in which the surface of tomato was colored in pink was 10% or less) (2×) and 1 (an area in which the surface of tomato was completely colored in red was 10 to 40%) and 2 (an area in which the surface of tomato was completely colored in red was 40 to 70%) | 1 (an area in which the surface of tomato was completely colored in red was 10 to 40%) (2×) and 0 (an area in which the surface of tomato was colored in pink was 10% or less) and 3 (an area in which the surface of tomato was completely colored in red was 70% or more and the bottom area remained green) | 1 (an area in which the surface of tomato was completely colored in red was 10 to 40%) (2×) and 2 (an area in which the surface of tomato was completely colored in red was 40 to 70%) and 3 (an area in which the surface of tomato was completely colored in red was 70% or more and the bottom area remained green) | 0 (an area in which the surface of tomato was colored in pink was 10% or less) (2×) and 1 (an area in which the surface of tomato was completely colored in red was 10 to 40%) and 2 (an area in which the surface of tomato was completely colored in red was 40 to 70%) | 0 (an area in which the surface of tomato was colored in pink was 10% or less) (2×) and 1 (an area in which the surface of tomato was completely colored in red was 10 to 40%) and 2 (an area in which the surface of tomato was completely colored in red was 40 to 70%) | 0 (an area in which the surface of tomato was colored in pink was 10% or less) (2×) and 1 (an area in which the surface of tomato was completely colored in red was 10 to 40%) and 3 (an area in which the surface of tomato was completely colored in red was 70% or more and the bottom area remained green) | 1 (an area in which the surface of tomato was completely colored in red was 10 to 40%) (2×) and 2 (an area in which the surface of tomato was completely colored in red was 40 to 70%) and 4 |
